Experimental findings from the supplement of paper PMC10307832 are described below.

Experiment in all cases: relative viability (nuclei count vs DMSO), 5 days (fraction); higher = more cells survive
Compound in experiment [1]: Cc1ccc(Nc2nccc(N(C)c3ccc4c(C)n(C)nc4c3)n2)cc1S(N)(=O)=O [Pazopanib] + CCNC(=O)c1noc(-c2cc(C(C)C)c(O)cc2O)c1-c1ccc(CN2CCOCC2)cc1 [Luminespib] (partner 0.01 µM)
The method, boiled down: (§1)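 Relative viability equals treated-well nuclei counts divided by vehicle-well nuclei counts. Counts came from 4× images of lung cancer cell lines grown in 1536-well plates for 5 days after pin-tool dosing on the day after seeding. Dosing used one drug alone or a fixed anchor-drug dose plus five library-drug doses (not always all listed) in √10 steps, and values are medians of duplicate plates.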

Compound in experiment [2]: Cc1ccc(C(=O)Nc2ccc(CN3CCN(C)CC3)c(C(F)(F)F)c2)cc1C#Cc1cnc2cccnn12 [Ponatinib] + COc1cccc2cc(-c3nc([C@H]4CC[C@H](C(=O)O)CC4)n4ncnc(N)c34)[nH]c12 [OSI-027] (partner 0.5 µM)
The method, boiled down: as §1

Compound in experiment [3]: Cc1ccc(Nc2nccc(N(C)c3ccc4c(C)n(C)nc4c3)n2)cc1S(N)(=O)=O [Pazopanib] + CS(=O)(=O)CCNCc1ccc(-c2ccc3ncnc(Nc4ccc(OCc5cccc(F)c5)c(Cl)c4)c3c2)o1 [Lapatinib] (partner 2 µM)
The method, boiled down:
as §1

Compound in experiment [4]: Cc1ccc(Nc2nccc(N(C)c3ccc4c(C)n(C)nc4c3)n2)cc1S(N)(=O)=O [Pazopanib] + NC(=O)Nc1cc(-c2cccc(F)c2)sc1C(=O)N[C@H]1CCCNC1 [AZD7762] (partner 0.2 µM)
An outline of the steps:
as §1

PC-14: the relative viability in experiment [1] (first compound 0.01 µM) was determined as 0.155; in experiment [1] (first compound 0.03162 µM), 0.177; in experiment [1] (first compound 0.1 µM), 0.173; in experiment [1] (first compound 0.3162 µM), 0.177; in experiment [1] (first compound 1 µM), 0.142; in experiment [2] (first compound 0.002 µM) it was 0.747. Also, the relative viability was 0.778 in experiment [2] (first compound 0.006325 µM); 0.933 in experiment [2] (first compound 0.06325 µM); 0.699 in experiment [2] (first compound 0.2 µM); 0.305 in experiment [3] (first compound 0.01 µM); 0.295 in experiment [3] (first compound 0.03162 µM); 0.304 in experiment [3] (first compound 0.1 µM). The relative viability worked out at 0.379 in experiment [3] (first compound 0.3162 µM); 0.45 in experiment [3] (first compound 1 µM); 0.422 in experiment [4] (first compound 0.01 µM); 0.328 in experiment [4] (first compound 0.03162 µM); 0.268 in experiment [4] (first compound 0.1 µM); 0.372 in experiment [4] (first compound 0.3162 µM). Besides, the relative viability in experiment [4] (first compound 1 µM) worked out at 0.426.
On to RERF-LC-KJ, for which the relative viability was determined as 1.31 in experiment [1] (first compound 0.01 µM); 1.36 in experiment [1] (first compound 0.03162 µM); 1.29 in experiment [1] (first compound 0.1 µM); 1.23 in experiment [1] (first compound 0.3162 µM); 1.23 in experiment [1] (first compound 1 µM); 0.603 in experiment [2] (first compound 0.002 µM). The relative viability in experiment [2] (first compound 0.006325 µM) was 0.576; in experiment [2] (first compound 0.06325 µM), 0.688; in experiment [2] (first compound 0.2 µM) it was 0.522; in experiment [3] (first compound 0.01 µM), 0.761; in experiment [3] (first compound 0.03162 µM) it was 0.758; in experiment [3] (first compound 0.1 µM), 0.815. The relative viability in experiment [3] (first compound 0.3162 µM) was found to be 0.734; in experiment [3] (first compound 1 µM), 0.799; in experiment [4] (first compound 0.01 µM), 0.796; in experiment [4] (first compound 0.03162 µM), 0.915; in experiment [4] (first compound 0.1 µM), 0.916; in experiment [4] (first compound 0.3162 µM), 1.02. In addition, the relative viability in experiment [4] (first compound 1 µM) was 0.992.
